# Laboratory results reported in patent US20220347093A1, “PHARMACEUTICAL COMPOSITION” (University of Fukui, priority 2019, published 2022).
# Legend:
# [1] = tested on: nasal polyps specimen surgically obtained from a patient with eosinophilic sinusitis; test: Ex vivo incubation of nasal polyps specimens, weight change before/after about 24 h; set-up: species or system human; details: 37° C.; for (A) − (B) (mg), nasal polyps weight decrease / After incubation (mg) (B), nasal polyps specimen weight: single case; for nasal polyps weight change before and after incubation (paired t-test): 6 cases
# Procedure: (§1) A heparinoid (organic sulfate group 25.8 to 37.3% w/w, D-glucuronic acid 19.0 to 24.0% w/w, Maruho Co., Ltd.) dried under reduced pressure was dissolved in saline to prepare heparinoid solutions (0.3, 30 and 3,000 μg/mL). A nasal polyps specimen was surgically obtained from a patient with eosinophilic sinusitis, cut into pieces of about 5 mm squares, wiped off the moisture and measured the weight. Each specimen was transferred to a 12-well plate. The specimen in the plate was incubated with 1 mL of saline or heparinoid solutions at 37° C. for about 24 hours. Then, after wiping off the moisture in the incubated specimen taken from the plate, the weight of the specimen was measured. The difference between specimen weights before and after incubation was used as an index of a nasal polyps reduction effect. The saline group and heparinoid solution groups (different in concentration) of FIG. 1 each consisted of 6 cases.
# The reduction effects of heparinoid solutions (0.003, 0.03, 0.3 and 30 μg/mL) on nasal polyps were evaluated in the same method as in Example 1. The saline group and heparinoid solution groups (different in concentration) of FIG. 2 each consisted of 6 cases.
# A PPS solution (0.003 μg/mL) was prepared and the reduction effect on nasal polyps was evaluated in the same method as in Example 1. PPS used herein was sodium pentosan polysulfate (weight average molecular weight 4,000 to 6,500, sulfur content 13.0 to 20.0% w/w, glucuronic acid content 2.5 to 4.0% w/w) manufactured by Molclone Labs. The saline group and PPS solution group of FIG. 3 each consisted of 6 cases.
# The following 11 types of polysaccharide solutions (polysaccharides except glucomannan: 300 μg/mL; glucomannan 30 μg/mL) were prepared and the reduction effect on nasal polyps was evaluated in the same method as in Example 1. The saline groups and polysaccharide solution groups (different in concentration) of Tables 1 to 4 each consisted of a single case. • Chondroitin (chondroitin sodium, weight average molecular weight 42,351, sulfate group content 2.6%, manufactured by Maruho Co., Ltd.) • Low-molecular chondroitin sulfate (low-molecular sodium chondroitin sulfate, weight average molecular weight 11,500, sulfate group content 8.9%, manufactured by Maruho Co., Ltd.) • Chondroitin sulfate A (sodium chondroitin sulfate A, manufactured by PG Research) • Dermatan sulfate (sodium dermatan sulfate, manufactured by Tokyo Chemical Industry Co., Ltd.) • Chondroitin sulfate C (sodium chondroitin sulfate C, manufactured by PG Research) • Glucomannan (Propol A, manufactured by Shimizu Chemical Corporation) • Dextran sulfate (sodium dextran sulfate 500,000, manufactured by FUJIFILM Wako Pure Chemical Corporation) • Keratan sulfate (sodium keratan sulfate, manufactured by PG Research) • Inulin (manufactured by Tokyo Chemical Industry Co., Ltd.) • Heparan sulfate (manufactured by Toronto Research Chemicals, Inc.) • Xylo-oligosaccharide (xylo-hexaose, manufactured by Megazyme)
# [2] = tested on: nasal polyps surgically obtained from patients with eosinophilic sinusitis; details: Non Patent Literature 5; cited from earlier work
# [3] = tested on: rat nasal mucosal inflammation models; details: Non Patent Literature 4; cited from earlier work
# [4] = tested on: nasal polyps specimen surgically obtained from a patient with non-eosinophilic sinusitis; test: Ex vivo incubation of nasal polyps specimens, weight change before/after about 24 h; set-up: species or system human; details: single case; for (A) − (B) (mg), nasal polyps weight decrease / After incubation (mg) (B), nasal polyps specimen weight: 37° C., about 24 hours; for nasal polyps weight change before and after incubation, in words: 0.03, 0.3, 30 and 300 μg/mL, individually
# Procedure: as §1
# In the same method as in Example 1, heparinoid solutions and PPS solutions (0.03, 0.3, 30 and 300 μg/mL, respectively) were prepared and the reduction effect on nasal polyps specimen surgically obtained from a patient with non-eosinophilic sinusitis was evaluated. The heparinoid and PPS were also the same as those used in Example 1 and Example 3, respectively. The saline groups, heparinoid solution group and PPS solution groups of Table 5 each consisted of a single case.
molecule,measurement,setting,value
"OC1OC[C@@H](O[C@@H]2OC[C@@H](O[C@@H]3OC[C@@H](O[C@@H]4OC[C@@H](O[C@@H]5OC[C@@H](O[C@@H]6OC[C@@H](O)[C@H](O)[C@H]6O)[C@H](O)[C@H]5O)[C@H](O)[C@H]4O)[C@H](O)[C@H]3O)[C@H](O)[C@H]2O)[C@H](O)[C@H]1O (stereo partly shown) [Xylo-oligosaccharide, xylo-hexaose]","(A) − (B) (mg), nasal polyps weight decrease",[1]; 300 μg/mL in saline,17.9 mg
same,"After incubation (mg) (B), nasal polyps specimen weight",[1]; 300 μg/mL in saline,110.4 mg
Glucomannan,"(A) − (B) (mg), nasal polyps weight decrease",[1]; 30 μg/mL in saline,19.0 mg
same,"After incubation (mg) (B), nasal polyps specimen weight",[1]; 30 μg/mL in saline,81.0 mg
Heparan sulfate,"(A) − (B) (mg), nasal polyps weight decrease",[1]; 300 μg/mL in saline,25.5 mg
same,"After incubation (mg) (B), nasal polyps specimen weight",[1]; 300 μg/mL in saline,103.0 mg
Inulin,"(A) − (B) (mg), nasal polyps weight decrease",[1]; 300 μg/mL in saline,46.1 mg
same,"After incubation (mg) (B), nasal polyps specimen weight",[1]; 300 μg/mL in saline,85.3 mg
chondroitin sodium,"(A) − (B) (mg), nasal polyps weight decrease",[1]; 300 μg/mL in saline,32.8 mg
same,"After incubation (mg) (B), nasal polyps specimen weight",[1]; 300 μg/mL in saline,122.0 mg
heparin,reduction effect on nasal polyps,[2],did not show a reduction effect
same,neutrophil infiltration,[3],significantly suppress
same,production of mucus,[3],significantly suppress
heparinoid,nasal polyps weight change before and after incubation (paired t-test),[1]; 0.003 μg/mL,decreased significantly
same,nasal polyps weight change before and after incubation (paired t-test),[1]; 0.03 μg/mL,decreased significantly
same,nasal polyps weight change before and after incubation (paired t-test),[1]; 0.3 μg/mL,decreased significantly
same,nasal polyps weight change before and after incubation (paired t-test),[1]; 30 μg/mL,decreased significantly
same,nasal polyps weight change before and after incubation (paired t-test),"[1]; 3,000 μg/mL",decreased significantly
same,"(A) − (B) (mg), nasal polyps weight decrease",[4]; 0.03 μg/mL,35.0 mg
same,"After incubation (mg) (B), nasal polyps specimen weight",[4]; 0.03 μg/mL,276.0 mg
same,"(A) − (B) (mg), nasal polyps weight decrease",[4]; 0.3 μg/mL,28.0 mg
same,"After incubation (mg) (B), nasal polyps specimen weight",[4]; 0.3 μg/mL,181.0 mg
same,"(A) − (B) (mg), nasal polyps weight decrease",[4]; 30 μg/mL,66.0 mg
same,"After incubation (mg) (B), nasal polyps specimen weight",[4]; 30 μg/mL,169.0 mg
same,"(A) − (B) (mg), nasal polyps weight decrease",[4]; 300 μg/mL,30.0 mg
same,"After incubation (mg) (B), nasal polyps specimen weight",[4]; 300 μg/mL,246.0 mg
same,"nasal polyps weight change before and after incubation, in words",[4],remarkably decreased
low-molecular sodium chondroitin sulfate [Low-molecular chondroitin sulfate],"(A) − (B) (mg), nasal polyps weight decrease",[1]; 300 μg/mL in saline,25.0 mg
same,"After incubation (mg) (B), nasal polyps specimen weight",[1]; 300 μg/mL in saline,116.0 mg
sodium chondroitin sulfate A,"(A) − (B) (mg), nasal polyps weight decrease",[1]; 300 μg/mL in saline,38.0 mg
same,"After incubation (mg) (B), nasal polyps specimen weight",[1]; 300 μg/mL in saline,68.0 mg
sodium chondroitin sulfate C,"(A) − (B) (mg), nasal polyps weight decrease",[1]; 300 μg/mL in saline,44.0 mg
same,"After incubation (mg) (B), nasal polyps specimen weight",[1]; 300 μg/mL in saline,80.0 mg
sodium dermatan sulfate,"(A) − (B) (mg), nasal polyps weight decrease",[1]; 300 μg/mL in saline,13.1 mg
same,"After incubation (mg) (B), nasal polyps specimen weight",[1]; 300 μg/mL in saline,118.5 mg
"sodium dextran sulfate 500,000","(A) − (B) (mg), nasal polyps weight decrease",[1]; 300 μg/mL in saline,22.0 mg
same,"After incubation (mg) (B), nasal polyps specimen weight",[1]; 300 μg/mL in saline,120.0 mg
sodium keratan sulfate,"(A) − (B) (mg), nasal polyps weight decrease",[1]; 300 μg/mL in saline,18.3 mg
same,"After incubation (mg) (B), nasal polyps specimen weight",[1]; 300 μg/mL in saline,147.3 mg
sodium pentosan polysulfate [PPS],nasal polyps weight change before and after incubation (paired t-test),[1]; 0.003 μg/mL,decreased significantly
same,"(A) − (B) (mg), nasal polyps weight decrease",[4]; 0.03 μg/mL,19.0 mg
same,"After incubation (mg) (B), nasal polyps specimen weight",[4]; 0.03 μg/mL,214.0 mg
same,"(A) − (B) (mg), nasal polyps weight decrease",[4]; 0.3 μg/mL,48.0 mg
same,"After incubation (mg) (B), nasal polyps specimen weight",[4]; 0.3 μg/mL,225.0 mg
same,"(A) − (B) (mg), nasal polyps weight decrease",[4]; 30 μg/mL,13.0 mg
same,"After incubation (mg) (B), nasal polyps specimen weight",[4]; 30 μg/mL,207.0 mg
same,"(A) − (B) (mg), nasal polyps weight decrease",[4]; 300 μg/mL,10.0 mg
same,"After incubation (mg) (B), nasal polyps specimen weight",[4]; 300 μg/mL,115.0 mg
same,"nasal polyps weight change before and after incubation, in words",[4],remarkably decreased
